Reference: PubChem BioAssay (NCI)
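1) Cells in 96-well plates. 2) Compound, 48 h, 5 concentrations. 3) Linear interpolation between surrounding doses. 4) Unreached endpoint = highest concentration. GI50 = concentration required for 50% inhibition of growth. The concentration for full growth arrest is given as TGI.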

Tests used:
Assay in all cases: inhibition of tumour cell growth, NCI panel, 48 h
CAKI-1 renal = tested on: CAKI-1 renal
OVCAR-5 ovarian = tested on: OVCAR-5 ovarian
786-0 renal = tested on: 786-0 renal
LOX IMVI melanoma = tested on: LOX IMVI melanoma
HOP-18 NSCLC = tested on: HOP-18 NSCLC
A498 renal = tested on: A498 renal
RPMI-8226 leukemia = tested on: RPMI-8226 leukemia
NCI-H226 lung = tested on: NCI-H226 lung
HS 578T breast = tested on: HS 578T breast
DMS 273 small cell lung = tested on: DMS 273 small cell lung

| SMILES | TGI (CAKI-1 renal) [µM] | TGI (OVCAR-5 ovarian) [µM] | TGI (786-0 renal) [µM] | TGI (LOX IMVI melanoma) [µM] | TGI (HOP-18 NSCLC) [µM] | TGI (A498 renal) [µM] | TGI (RPMI-8226 leukemia) [µM] | TGI (NCI-H226 lung) [µM] | GI50 (CAKI-1 renal) [µM] | GI50 (OVCAR-5 ovarian) [µM] | GI50 (786-0 renal) [µM] | GI50 (LOX IMVI melanoma) [µM] | GI50 (A498 renal) [µM] | GI50 (RPMI-8226 leukemia) [µM] | GI50 (NCI-H226 lung) [µM] | GI50 (HS 578T breast) [µM] | TGI (HS 578T breast) [µM] | TGI (DMS 273 small cell lung) [µM] |
| --- | --- | --- | --- | --- | --- | --- | --- | --- | --- | --- | --- | --- | --- | --- | --- | --- | --- | --- |
| CCCN1C(=O)CNC(=O)c2[nH]cnc21 | > 100 | > 100 | > 100 | > 100 | > 100 | > 100 | > 100 | > 100 |  |  |  |  |  |  |  |  |  |  |
| COc1ccc2c(c1)C(=O)c1c-2c(NCCN(C)C)nc2ccccc12 | 2.48 | 16 | 9.1 | 11.6 |  | 24.6 | 4.53 | 32.5 | 0.373 | 4.23 | 2.65 | 2.01 | 11.3 | 1.21 | 16.2 | 9.28 | 26.8 |  |
| Nc1ncnc2c1ncn2C1OC(COC2C(CO)OC(OC(C(=O)O)C(O)C(OP(=O)(O)O)C(O)C(=O)O)C(O)C2O)C(O)C1O (stereo not given) | > 100 | > 100 | > 100 | > 100 |  | > 100 | > 100 | > 100 |  |  |  |  |  |  |  |  | 91.2 |  |
| O=NN(CCCl)C(=O)N[C@H]1CCCC[C@@H]1Cl | > 100 |  | > 100 |  | > 100 | > 100 | > 100 | > 100 |  |  |  |  |  |  |  |  |  | > 100 |
| CN1CCN(CC(=O)N2c3cccc4cccc(c34)N(C(=O)CN3CCN(C)CC3)C2c2cn(-c3ccccc3)nc2-c2cccc([N+](=O)[O-])c2)CC1 | 4.1 | 7.53 | 3.21 | 3.22 |  | 3.95 | 4.33 | 4.8 | 1.83 | 2.46 | 1.76 | 1.74 | 1.92 | 1.76 | 1.83 | 1.95 | 5.71 |  |
| COC(=O)Cc1cc(=O)n2c([nH]c3ccccc32)c1C#N | > 100 | > 100 | > 100 | > 100 |  | > 100 | > 100 | > 100 |  |  |  |  |  |  |  |  |  | > 100 |
| Nc1nc(-c2ccccc2)cc(-c2ccc(Cl)cc2)c1-c1nc2ccccc2o1 | 38.6 | 42.1 | 22.3 | 18.4 |  | 30.3 | 19.8 | 29.2 | 22.9 | 21.8 | 10.6 | 6.04 | 16.7 | 4.82 | 14.5 | 14.8 | 36.1 |  |
| COc1ccc2nc(-c3cc4c([nH]c5ccccc54)c(-c4ccc(F)c(F)c4)n3)[nH]c2c1 | 8.97 | 58.6 | 24.9 | 10.8 |  | 56.6 | 4.29 | 42.5 | 2.41 | 17.8 | 10.2 | 2.86 | 9.84 | 1.55 | 8.91 | 8.68 | 41.9 |  |
